Experimental data from patent US7714014B2, “Targeting GLI proteins in human cancer by small molecules” (The Regents of the University of California, priority 2005, dated 2010).

Key:
[1] = system: Tcf-mediated gene transcription (canonical Wnt signaling) in colon cancer cell line SW480; assay: TOPFLASH (TOP/FOP) assay; assay type: cell-based, human
Protocol: Cells were plated in 12-well plates. The TOPFLASH or FOPFLASH reporter plasmid (Upstate; Charlottesville, Va.) was transfected transiently into cells as described above. Tcf-mediated gene transcription was determined by the ratio of pTOPFLASH:pFOPFLASH luciferase activity, each was normalized to luciferase activities of the pRL-TK reporter (co-transfected internal control). All experiments were performed in triplicate, and repeated three times.
Regulation of TOP/FOP activity by the same compounds as described above was also analyzed in the colon cancer cell line SW480.

[2] = system: hedgehog pathway in melanoma cell line LOX, colon cancer cell line SW480 and primary cultured human mesothelioma cells; assay: Semi-quantitative RT-PCR of Hedgehog pathway genes; assay type: cell-based; details: data not shown
Protocol: (§1) Total RNA from cell lines or tissue samples was isolated using Qiagen RNeasy Mini Kit (Valencia, Calif.). RT-PCR was performed in GeneAmp PCR system 2700 (Applied Biosystems, Foster City, Calif.) using One-step RT-PCR Kit from Invitrogen Life Technologies (Carlsbad, Calif.). Primers for RT-PCR were obtained from Operon Technologies Inc. (Alameda, Calif.). Primer sequences for amplifying different genes in Hedgehog and Wnt signaling pathways are listed in the table below (Table 1; F, forward primer; R, reverse primer). The expected size of the PCR product is indicated for each primer pair. GAPDH was used as internal control.

[3] = system: human Gremlin promoter in HEK 293T cells; assay: Gremlin promoter-luciferase reporter assay; assay type: cell-based; details: 30 μM, 18-24 hours
Protocol: One day before transfection, cells (1×10^5) were plated in 12-well plates with growth medium without antibiotics. When cells reached 80-90% of confluence they were co-transfected using 0.5 μg of each promoter construct in pGL3Basic vector and 0.025 μg pRL-TK Vector (Promega; Madison, Wis.) containing Renilla Luciferase as an internal control for the transformation efficiency. Lipofectamine 2000™ (Invitrogen Life Technologies) was used to mediate transfection for about 6 hours. Then the medium was replaced with fresh medium containing various small molecule compounds at a concentration of 30 μM, and the resulting cells were cultured for an additional 18-24 hours and subjected to luciferase assay. Briefly, cells were lysed in a lysis buffer and Firefly and Renilla Luciferase activities in cells of each well, were measured using Dual-Luciferase Assay System (Promega) and an illuminometer. The measured luciferase activities were normalized to pRL-TK Vector activity and were given relative to the basal activity of empty pGL3-Basic Vector, which was set to unity. The data shown represent mean values (±S.D.). All measurements were performed in triplicate and repeated in at least three independent experiments. […]

[4] = system: Hedgehog (Hh) signaling pathway (Ptch1, Gli1) in NSCLC cell lines H460 and A549; assay: Semi-quantitative RT-PCR of Hedgehog pathway genes; assay type: cell-based, human; details: for expression of Hh pathway key components and direct target genes (Ptch1, Gli1): 30 μM, 2 days, data not shown
Protocol: as §1
To further examine the mechanism of action of the small molecule compounds of the present invention, the effect of compounds FN1-5 and FN1-8 on the Hedgehog (Hh) signaling pathway was examined in NSCLC cell lines H460 and A549. H460 and A549 cells were incubated with 30 μM of each compound (FN1-5 or FN1-8) for 2 days before isolation of total RNA that was used for semi-quantitative RT-PCR analysis. […] GAPDH served as a control.

LOX (melanoma) = assay: Apoptosis analysis (Annexin V FITC, flow cytometry); assay type: cell-based, human; details: 3 days
Protocol: Apoptosis was analyzed by using an Annexin V FITC Apoptosis Detection Kit (Biosource, Camarillo, Calif.), according to the manufacturer's protocol. After treatment with different small molecule compounds at various concentrations for about 3 days, cells were harvested by trypsinization, stained and immediately analyzed by flow cytometry (FACScan; Decton Dickinson, Franklin Lake, N.J.). Early apoptotic cells with exposed phosphatidylserine but intact cell membranes will bind to Annexin V-FITC, but not propidium iodide (PI). Cells in necrotic or late apoptotic stages will be labeled with both Annexin V-FITC and PI. “% apoptotic cells” or “% apoptosis” refers to the combined early and late apoptotic cells.
The cell killing of LOX cells by treatment with small molecule compounds FN1-5 and FN1-8 was analyzed in greater detail using various concentrations of these two compounds and flow cytometry. […] (Tables 2 and 3).

[5] = system: colon cancer cell lines LoVo and CaCO2; assay: Cell survival assay (crystal violet); assay type: cell-based, human; details: for cell killing: data not shown
Protocol: Typically, the small molecule compounds of the present invention were dissolved in DMSO at a concentration of 30 mM. The small molecule compounds were then tested under cell culture conditions at different concentrations ranging from 0, 10, 30, 50, to 100 uM. To determine cell survival after treatment, the cells were incubated with the small molecule compounds in 6-well plates for about 3 days. After removal of the cell culture medium, 1-ml of 0.5% crystal violet solution (prepared in 20% ethanol and 20% methanol) was added to stain the cells for 5 min. Then the crystal violet solution was rinsed clean with tap water. Cell survival was estimated based on the density of crystal stained plates.
Both, small molecule compounds FN1-5 and FN1-8 induced apoptosis in CaCO2 (Tables 2 and 3).

Row | SMILES | TOP/FOP activity [1] | modulation of hedgehog pathway (RT-PCR) [2] | Gremlin promoter activity [3] | expression of Hh pathway key components and direct target genes (Ptch1, Gli1) [4] | % of apoptotic cells (LOX (melanoma); 10 μM) [%] | % of apoptotic cells (LOX (melanoma); 30 μM) [%] | % of apoptotic cells (LOX (melanoma); 50 μM) [%] | cell killing [5] | reduction of TOP/FOP activity [1] | inhibitory effect on Hh and Wnt pathways compared with FN1-5 [4] | cell killing potency compared with FN1-5 [5]
1 | O=C(NCCCCCO)C1C(c2ccccc2)=NN(c2ccccc2)C1c1ccccc1 (stereo not drawn) [FN1-5, N-(5-Hydroxypentyl)-1,3,5-triphenyl-4,5-dihydro-pyrazole-4-carboxyamide] | lesser effect | modulate the hedgehog pathway | inactive | downregulated | 14.0 | 16.6 | 58.1 | dramatic cell killing |  |  | 
2 | O=C(NCCc1ccc(O)cc1)C1C(c2ccccc2)=NN(c2ccccc2)C1c1ccccc1 (stereo not drawn) [FN1-8, N-(2-(4-Hydroxyphenyl)ethyl)-1,3,5-triphenyl-4,5-dihydro-pyrazole-4-carboxyamide] |  | modulate the hedgehog pathway | inactive | downregulated | 16.7 | 19.0 | 78.9 | dramatic cell killing | about 32% | more inhibitory effect | more potent than FN1-5
